Where two headings read alike, the source gives them in different places.
How the values were obtained:
[1] = test system: Hedgehog pathway activation on 10T1/2/Smo#3 cells (C3H10T1/2 cells transfected with human Smoothened receptor); experiment: Hedgehog pathway activation on 10T1/2/Smo#3 cells measured by ALP activity; assay type: cell-based; conditions: Mus musculus, C3H 10T1/2, 10T1/2/Smo#3 cells
Experimental: Hedgehog conditioned media was obtained by transfecting 293H cells with the full length gene encoding human Sonic Hedgehog (hShh) inserted into the pCMV6 expression vector, which contains a neomycin selectable marker and expresses the protein of interest with a C-terminal FLAG affinity tag. After selection in G418 containing media, conditioned media from Hedgehog expressing clones were tested for the ability to activate the hedgehog-responsive GLi-luciferase reporter in the Shh Light II cell line obtained by license from John Hopkins University (Taipale J, et al. Effects of oncogenic mutations in Smoothened and Patched can be reversed by cyclopamine. Nature 406: 1005-1009, 2000).
C3H10T1/2 cells were transfected with a pCMV expression vector containing the full length gene sequence encoding the human Smoothened receptor. Pooled cells, designated 10T1/2/Smo#3, growing in G418 selection media responded to activation by 10-20% conditioned hShh media with an approximate 5-10 fold increase in alkaline phosphaste (ALP) activity over untransfected parent C3H10T1/2 cells as measured by the conversion of the free acid of 4-methylumbelliferyl phosphate to a fluorescent product.
A test compound library was screened against hShh and 500 nM SAG (a direct agonist of the Smoothened receptor) activated 10T1/2/Smo#3 cells and Shh Light II reporter cells for the ability to block Hedgehog pathway activation. Concurrently, cell viability was measured by utilizing Celltiter-Blue® (Promega, Madison Wis.) viability assay. Active compounds were defined as those that inhibited Hedgehog signaling by greater than 50% with no concurrent loss in cell viability.
Their inhibitory activity against Hedgehog pathway activation on 10T1/2/Smo#3 cells as measured by ALP activity and Shh Light II reporter cells as measured by luciferase activity is shown in Table 1 below. In Table 1, +++ stands for an IC50 value that is less than 0.3 μM, ++ between 0.3 and 3 μM, + between 3 and 30 μM.
Additional data for compounds of the invention is shown below in Table 2. Their inhibitory activities against Hedgehog pathway activation are shown as IC50 values in μM on 10T1/2/Smo#3 cells as measured by ALP activity, or on Shh Light II reporter cells as measured by luciferase activity (hShh activation).

[2] = test system: Hedgehog pathway activation (GLi-luciferase reporter) in Shh Light II reporter cells; experiment: Hedgehog pathway activation on Shh Light II reporter cells measured by luciferase activity; assay type: cell-based; conditions: Mus musculus, Shh Light II
Outline: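 Shh Light II reporter cells carrying a hedgehog-responsive GLi-luciferase reporter were stimulated either with 500 nM SAG, a direct Smoothened agonist, or with conditioned media containing human Sonic Hedgehog (hShh). Test compounds were evaluated for blocking this pathway activation, quantified by luciferase activity. Cell viability was monitored in parallel with the Celltiter-Blue® assay.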

[3] = measured by ALP activity, read-out: ALP (IC50, inhibition of Hedgehog pathway activation)
[4] = hShh activation, read-out: Shh (IC50, inhibition of Hedgehog pathway activation)
[5] = hShh activation, ALP activity, read-out: 10T1/2/Smo#3 ALP activity (hShh Activation)
[6] = SAG activation (500 nM SAG), read-out: Shh Light II luciferase activity (SAG activation)
[7] = hShh activation, read-out: Shh Light II luciferase activity (hShh activation)

IC50 [1, 3] | IC50 [2, 4] | IC50 [1, 5] | IC50 [2, 6] | IC50 [2, 7] | SMILES
1.25 µM | 0.435 µM | – | – | – | COc1ccc2nc(-c3ccc(C(F)(F)F)c(NC(=O)C(C)(C)C)c3)cn2n1 [Example 125, N-(5-(6-methoxyimidazo[1,2-b]pyridazin-2-yl)-2-(trifluoromethyl)phenyl)pivalamide]
5.57 µM | 7.72 µM | – | – | – | CC(C)(C)C(=O)Nc1cc(-c2cn3nc(Cl)ccc3n2)ccc1C(F)(F)F [Example 126, N-(5-(6-chloroimidazo[1,2-b]pyridazin-2-yl)-2-(trifluoromethyl)phenyl)pivalamide]
0.11 µM | 4.97 µM | < 0.3 µM | 0.3 to 3 µM | 0.3 to 3 µM | Cc1ccc(-c2cn3nc(C4CC4)ccc3n2)cc1NC(=O)C(C)(C)C [Example 127, N-(5-(6-cyclopropylimidazo[1,2-b]pyridazin-2-yl)-2-methylphenyl)pivalamide]
0.422 µM | > 10 µM | 0.3 to 3 µM | 3 to 30 µM | 3 to 30 µM | Cc1ccc(-c2cn3nc(N4CCOCC4)ccc3n2)cc1NC(=O)C(C)(C)C [Example 128, N-(2-methyl-5-(6-morpholinoimidazo[1,2-b]pyridazin-2-yl)phenyl)pivalamide]
0.789 µM | 1.77 µM | – | – | – | Cc1ccc(-c2cn3nc(SCc4ccccc4)ccc3n2)cc1NC(=O)C(C)(C)C [Example 129, N-(5-(6-(benzylthio)imidazo[1,2-b]pyridazin-2-yl)-2-methylphenyl)pivalamide]
0.526 µM | 0.898 µM | 0.3 to 3 µM | < 0.3 µM | 0.3 to 3 µM | CCCCS(=O)(=O)c1ccc2nc(-c3ccc(C)c(NC(=O)C(C)(C)C)c3)cn2n1 [Example 130, N-(5-(6-(butylsulfonyl)imidazo[1,2-b]pyridazin-2-yl)-2-methylphenyl)pivalamide]
8.28 µM | 1.45 µM | – | – | – | Cc1cc(Cl)c(-c2cn3nc(Cl)ccc3n2)cc1NC(=O)C(C)(C)C [Example 131, N-(4-chloro-5-(6-chloroimidazo[1,2-b]pyridazin-2-yl)-2-methylphenyl)pivalamide]
> 10 µM | 1.49 µM | – | – | – | COc1ccc2nc(-c3cc(NC(=O)C(C)(C)C)c(C)cc3Cl)cn2n1 [Example 132, N-(4-chloro-5-(6-methoxyimidazo[1,2-b]pyridazin-2-yl)-2-methylphenyl)pivalamide]
0.849 µM | 0.487 µM | – | – | – | CC(C)(C)C(=O)Nc1cc(-c2cn3nc(C4CCCC4)ccc3n2)ccc1C(F)(F)F [Example 133, N-(5-(6-cyclopentylimidazo[1,2-b]pyridazin-2-yl)-2-(trifluoromethyl)phenyl)pivalamide]
0.232 µM | 0.926 µM | < 0.3 µM | 0.3 to 3 µM | 0.3 to 3 µM | Cc1c(-c2ccccc2)nc2ccc(N3CCN(Cc4ccc(F)cc4)CC3)nn12 [Example 134, 6-(4-(4-fluorobenzyl)piperazin-1-yl)-3-methyl-2-phenylimidazo[1,2-b]pyridazine]
5.23 µM | 1.25 µM | – | – | – | CSc1ccc2nc(-c3ccc(C(F)(F)F)c(NC(=O)C(C)(C)C)c3)cn2n1 [Example 135, N-(5-(6-(methylthio)imidazo[1,2-b]pyridazin-2-yl)-2-(trifluoromethyl)phenyl)pivalamide]
0.452 µM | 0.158 µM | – | – | – | CCOc1ccc2nc(-c3ccc(C(F)(F)F)c(NC(=O)C(C)(C)C)c3)cn2n1 [Example 136, N-(5-(6-ethoxyimidazo[1,2-b]pyridazin-2-yl)-2-(trifluoromethyl)phenyl)pivalamide]
0.995 µM | 0.623 µM | 0.3 to 3 µM | 0.3 to 3 µM | 0.3 to 3 µM | CNc1ccc2nc(-c3ccc(C(F)(F)F)c(NC(=O)C(C)(C)C)c3)cn2n1 [Example 137, N-(5-(6-(methylamino)imidazo[1,2-b]pyridazin-2-yl)-2-(trifluoromethyl)phenyl)pivalamide]
